Data taken from publication PMC5350031 (Circulation, 2017).
Where two headings read alike, the source gives them in different places.

Columns and labels:
[1] = system: β-myosin heavy chain (β-MHC); assay: β-MHC protein expression in hearts of chronically treated mice; type: in vivo, mouse; settings: Tm-E54K hearts, chronic treatment; untreated Tm-E54K approximately 30%
[2] = system: Tm-E54K and NTG mice; assay: Echocardiography, cardiac function and morphology after three months treatment; type: in vivo, mouse
[3] = system: hearts of Tm-E54K and NTG mice; assay: Histology, cell cross-sectional area; type: in vivo, mouse
[4] = system: detergent-extracted fiber bundles of NTG and Tm-E54K mice; type: in vivo, mouse; settings: 3 months treatment; for Hill Coefficient / Max. Tension / pCa50 (Ca^2+ concentration at half-maximal tension): Mean ± SEM, n = 6–8 fibers
[5] = system: RSK3, MYPT1/2 and SRF phosphorylation in neonatal rat ventricular myocytes (NRVM); type: cell-based
[6] = system: Akt, GSK-3β, β-catenin, phospholamban, ERK1/2, RSK3, SRF, MYPT1/2, SERCA2; assay: Western blot of signaling pathways in hearts of chronically treated mice; type: in vivo, mouse
[7] = system: myofilament proteins (MLC2v, TnT, cTnI, cMyBP-C); assay: Myofilament protein phosphorylation in hearts of chronically treated mice; type: in vivo, mouse
[8] = Tm-E54K hearts, N = 4–6 hearts per group

## CCCCc1nc(Cl)c(CO)n1Cc1ccc(-c2ccccc2-c2nn[nH]n2)cc1 [losartan]
[1]
  β-MHC expression, % of the isoform content: approximately 10%
[2]
  cardiac output (in words): did not have improved cardiac output
  heart rate (in words): nor an increase in heart rate
[2]; vs. Tm-E54K untreated
  systolic / cardiac function (in words): no changes in cardiac function
[3]; NTG mice
  cross-sectional cell area (in words): significant decrease
[3]; Tm-E54K mice
  cross-sectional cell area (in words): no effect
[4]; NTG mice
  maximum tension generation (in words): decrease in maximum tension generation
  Hill Coefficient: 2.10 ± 0.12
  Max. Tension: 25.73 ± 3.31 ^† mN/mm^2
  pCa50 (Ca^2+ concentration at half-maximal tension): significant decrease in pCa50 compared to both TRV067 and untreated NTG groups
[4]; NTG mice, listed as Losartan
  pCa50 (Ca^2+ concentration at half-maximal tension): 5.60 ± 0.02 ^†
[4]; Tm-E54K mice
  maximum tension generation (in words): no significant effect
  Hill Coefficient: 2.00 ± 0.08
  Max. Tension: 27.29 ± 1.07 ^∥ mN/mm^2
[5]
  MYPT1/2 phosphorylation (in words): no effect
  RSK3 phosphorylation (in words): no effect
  SRF phosphorylation (in words): no effect
[6]; NTG and Tm-E54K mice
  MYPT1/2 phosphorylation (in words): no effect
  RSK3 phosphorylation (in words): no effect
  SRF phosphorylation (in words): no effect
[6]; NTG mice, vs. untreated controls
  phospholamban (PLN) phosphorylation at S16 (in words): increase
[6]; Tm-E54K and NTG mice, vs. untreated
  SERCA2 protein expression (in words): no effect
[6]; [8]
  Akt phosphorylation at S473 (in words): decreased
  GSK-3β phosphorylation at S9 (in words): decreased
  β-catenin phosphorylation (in words): increase
[6]; Tm-E54K mice
  phospholamban (PLN) phosphorylation at S16 (in words): increase
  phospholamban (PLN) phosphorylation at T17 (in words): not the T17 site
[7]; Phos-Tag gel electrophoresis, NTG mice, vs. NTG untreated
  MLC2v phosphorylation (in words): significantly decreased
[7]; ProQ diamond, Tm-E54K mice, vs. TRV067-treated Tm-E54K, N = 4–6 hearts per group
  TnT phosphorylation (in words): significant decrease
[7]; mice treated with TRV067 or losartan
  cMyBP-C phosphorylation at PKA sites (in words): did not observe an increase in other PKA phosphorylatable sites, such as cMyBP-C
